Entries after “also recorded” stand apart in the source; their conditions may differ.
Experiments:
[1] = tested on: Lung fibroblasts from patients with IPF; test: Sircol collagen assay, TGF-β stimulated IPF lung fibroblasts; format: cell-based, human; conditions: Omeprazole 50 or 100 μM; L-257 50 μM; A83-01 20 μM; 24 hours
Description: Cells were seeded at 4×10^4 cells/well in a 6-well plate (1.2 mL media per well) and incubated overnight at 37° C./5% CO2. The next day, the conditioned media was aspirated and the cells were rinsed with phosphate-buffered saline (PBS) prior to (fetal bovine) serum starving them for 2 hours followed by 22 hours low serum (0.1% fetal bovine serum; FBS) in order to synchronize them.
On day-3, the cells were stimulated with fully-supplemented media (containing 10% FBS) in the absence or presence of recombinant transforming growth factor-1 (TGF-β1) (at 10 ng/mL final conc) in the presence of a DDAH inhibitor (DDAHi; the proton pump inhibitor (PPI) lansoprazole at a final concentration of 20 μM) or vehicle for 24 hours.
The acid-soluble collagen content in each well was determined in the conditioned media using the Sircol collagen assay (Accurate Chemical and Scientific Corp; CLRS 1000) following the recommended protocol.
The amount of collagen in each well was estimated from a standard curve and the collagen content in each sample was normalized to total cellular protein from the respective well and was expressed as μg collagen per milligram of protein.
Lung fibroblasts were isolated from patients diagnosed with IPF according to International Standards. Isolated fibroblasts were seeded at 6×10^4 and synchronized the following day.
The acid-soluble collagen content was determined using the Sircol collagen assay (Accurate Chemical and Scientific Corp; CLRS 1000) following the recommended protocol.

[2] = tested on: Human lung epithelial cell line (A-549); test: BrdU Cell Proliferation Assay, human alveolar epithelial cells; format: cell-based; conditions: FIG. 24
Description: Cells were seeded at 5×10^3 cells/well in a 96-well plate (200 μL media per well) & incubated overnight at 37° C./5% CO2. The next day, the conditioned media was aspirated and the cells were PBS-rinsed prior to (fetal bovine) serum starving them for 2 hours followed by 22 hours low serum (0.1% FBS) in order to synchronize them.
On day-3, 2 hours before the end of the 24 hours low serum period, DDAH inhibitors (Proton pump inhibitors; PPIs) were added in a 100 μL solution of 0.1% FBS DMEM. The following DDAH inhibitors were used: Lansoprazole; Esomeprazole; and Rabeprazole. A “vehicle only” sample served as a “no DDAH” control. In addition, Media only (blank control) without cells, and Cells only (background control) were included in the assay. Two hours later, 100 μL of DMEM containing 10% FBS was added to each well in order to serum-stimulate (for 24 hours) the cells and make the total well content to 200 μL. Four hours prior to the end of the 24 hrs, 20 μL of 1:500 diluted Bromodeoxyuridine (BrdU) (diluted in fully-supplemented DMEM) was added to all wells except the “Cells only” control wells.
The incorporation of BrdU into newly synthesized DNA by actively proliferating cells was detected immunochemically using an Antibody directed against BrdU using the recommended protocol and the BrdU Cell Proliferation Assay kit (Millipore; Cat #2750). […]

[3] = tested on: mouse alveolar epithelial cell; test: BrdU Cell Proliferation Assay, mouse alveolar epithelial cells; format: cell-based; conditions: mouse cell line, FIG. 25
Description: A “vehicle only” sample served as a “no DDAH” control.

[4] = tested on: human microvascular endothelial cells (HMEC-1); test: Intracellular ADMA by ELISA in endothelial cells; format: cell-based; conditions: 20 μM, 24 hours, compared to vehicle control
Description: (§1) First, human microvascular endothelial cells (HMEC-1; ATCC) were seeded in 75 cm^2 cell culture flasks and cultured in fully supplemented DMEM (Invitrogen cat #11995; supplemented with 10% fetal bovine serum (FBS), 4 mM HEPES; GIBCO 15630 and penicillin/streptomycin). The cells were incubated at 37° C./5% CO2 until ˜60% confluency. The cells were then washed with phosphate buffered saline (PBS) and plain DMEM (DMEM with no addition of serum or the other supplements) was mixed with esomeprazole (20 μM final concentration from 100 mM stock) and added to the cells. […] After ˜4 hrs of incubation, the media was aspirated from each flask and the cells were cultured in fully supplemented DMEM as described above and incubated at 37° C./5% CO2 for another 20 hrs. The serum was initially withdrawn due to the possibility that esomeprazole would interact with Cys containing serum proteins and fail to internalize at effective concentrations.
After 24 hrs, the cells were harvested. Total cellular protein was estimated as described and ADMA was measured by enzyme-linked immunosorbent assay (ELISA) following the manufacturer's recommendations; DLD Diagnostika, Hamburg, Germany).
as §1, with “FBS,” for “fetal bovine serum (FBS),”, “PBS” for “phosphate buffered saline (PBS)”, “PD 404” for “esomeprazole”, “conc” for “concentration”, “The serum was initially withdrawn due to the possibility that esomeprazole would interact with Cys containing serum proteins and fail to internalize at effective concentrations.” left out
After 24 hours, the cells were harvested. Total cellular protein was estimated as described and ADMA was measured by ELISA following the manufacturer's recommendations; DLD Diagnostika, Hamburg, Germany).

[5] = molecular target: recombinant human DDAH1 (rhDDAH1) (Homo sapiens (Human), UniProt O94760); test: Colorimetric L-citrulline assay of DDAH activity (ADMA substrate; high throughput screen and orthogonal validation); format: biochemical
Sequence of recombinant human DDAH1 (rhDDAH1) (O94760 whole entry): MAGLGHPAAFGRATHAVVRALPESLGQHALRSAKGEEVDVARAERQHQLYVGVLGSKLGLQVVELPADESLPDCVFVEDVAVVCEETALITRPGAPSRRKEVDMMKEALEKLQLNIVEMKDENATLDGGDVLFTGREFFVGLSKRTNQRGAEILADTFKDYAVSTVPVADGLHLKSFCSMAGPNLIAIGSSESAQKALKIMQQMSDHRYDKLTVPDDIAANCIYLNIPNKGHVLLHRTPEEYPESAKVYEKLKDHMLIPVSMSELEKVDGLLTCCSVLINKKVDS
Description: (§2) The enzymatic activity of DDAH was monitored using a colorimetric assay that detects product (L-citrulline) formation from the substrate ADMA. In brief, recombinant human DDAH1 (rhDDAH1) was mixed with ADMA in the presence of screening buffer in 384-well plates. Plates were incubated at 37° C. for 4 hours. Subsequently, color developing reagent (containing 2 volumes of Antipyrine and 1 volume of 2,3-Butanedione oxime reagents) was added and the plates were incubated at 60° C. for 90 min prior to spinning them at 1,500 rpm for 5 min. In this assay absorbance is proportional to the concentration of citrulline generated by DDAH, and was measured using an AnalystGT plate reader at 485 nm using a dichroic beamsplitter.
as §2, with “ADMA, as described in Example 1.” for “ADMA.”, “antipyrine” for “Antipyrine”
The L-citrulline assay was based upon an original test-tube method developed by Prescott and Jones in 1969 (Prescott, L. M. & Jones, M. E. Modified methods for the determination of carbamyl aspartate. Anal Biochem 32, 408-419 (1969)), which was adapted and optimized for a microplate format. Subsequently, the activity of DDAH was quantified by detecting its conversion of ADMA to citrulline using the optimized protocol. The assay was scaled up to a 384-well format for high throughput chemical screening.
Over 130,000 small molecules deposited in the Stanford High-throughput Bioscience Center (HTBC) were screened using the enzymatic assay to identify chemicals that regulate DDAH activity. In brief, recombinant human DDAH1 (rhDDAH1) was mixed with ADMA in the presence of screening buffer in 384-well plates using a Staccato multidrop. Small molecules (100 nL each) were then added to the wells using a robotic arrayer to yield a final compound screening concentration of up to 50 μM. Plates were incubated at 37° C. for 4 hours. Subsequently, color developing reagent (containing 2 volumes of Antipyrine and 1 volume of 2,3-Butanedione oxime reagents) was added using Velocity 11 system and the plates were sealed using an automated plate sealer. Finally, color was developed by incubating the plates at 60° C. for 90 minutes prior to spinning them at 1,500 rpm for 5 minutes. In this assay absorbance is proportional to the concentration of citrulline generated by DDAH, and was measured using an AnalystGT plate reader at 485 nm using a dichroic beamsplitter. The signal-to-noise ratio of separation was calculated using an established formula in Zhang. (Zhang, J. H., Chung, T. D. & Oldenburg, K. R. A Simple Statistical Parameter for Use in Evaluation and Validation of High Throughput Screening Assays. J Biomol Screen 4, 67-73 (1999)).
In brief, various amounts of rhDDAH1 (0.1 to 10 μM) were incubated with various concentrations of ADMA (1 μM to 8 mM) for various time points (30 min to 10 h) at room temperature or 37° C. […] The reactions were stopped and color was developed as described above followed by incubation at 60° C. for 90 min. Absorbance, proportional to DDAH activity, was measured at 485 nm±20 nm. In order to screen the entire library, the biochemical properties of the assay were optimized, as described above. The technique was modified so as to reduce the number of steps and facilitate robotic handling and throughput. Subsequently, HTS was performed using 384-well plates. […]

[6] = molecular target: T1, human DDAH1 (Homo sapiens (Human), UniProt O94760); test: Fluorimetric CPM assay of DDAH activity (SMTC substrate); format: biochemical
T1 sequence (O94760 whole entry): as above
Description: The activity of human DDAH1 was quantified using fluorimetric assay by incubating the enzyme with an artificial substrate S-methyl-thiocitrulline (SMTC). DDAH metabolizes SMTC into L-citrulline and methanethiol (CH3—SH). The thiol released from the reaction can be monitored fluorimetrically by adding 7-Diethylamino-3-(4-maleimidophenyl)-4-methylcoumarin (CPM).
The activity of human DDAH1 was quantified using fluorimetric assay by incubating the enzyme with an artificial substrate S-methyl-thiocitrulline (SMTC), as described in Example 1. DDAH metabolizes SMTC into L-citrulline and methanethiol (CH3—SH). The thiol released from the reaction can be monitored fluorimetrically by adding 7-Diethylamino-3-(4-maleimidophenyl)-4-methylcoumarin (CPM).
For the secondary assay, a fluorimetric assay that uses SMTC as a substrate was adapted. DDAH metabolizes SMTC into L-citrulline and methanethiol (CH3—SH). In brief, DDAH (30 nM final concentration) was mixed with SMTC (100 μM final concentration), CPM (50 μM final concentration) and screening buffer (containing a final concentration of 0.01% Triton-X100 and 1 mM EDTA). The reaction mix was added to black 384-well plates to validate primary hits that modulate DDAH activity. The release of CH3—SH was monitored fluorimetrically by adding 7-Diethylamino-3-(4-maleimidophenyl)-4-methylcoumarin (CPM) as described in Linsky (Linsky, T. & Fast, W. A continuous, fluorescent, high-throughput assay for human dimethylarginine dimethylaminohydrolase-1. J Biomol Screen 16, 1089-1097 (2011)).

[7] = molecular target: T1, human DDAH1; test: Time-dependence kinetics study of DDAH inhibition; format: biochemical
[8] = 50 μM, compared to vehicle control

Structure (SMILES): Cc1cccc(-c2nn(C(=S)Nc3ccccc3)cc2-c2ccnc3ccccc23)n1 [A83-01]
- TGF-β induced collagen synthesis [1]: reduced TGF-β induced collagen synthesis

Structure (SMILES): COCCNC(N)=NCCC[C@H](N)C(=O)O [L-257]
- incorporation of BrdU [2]: reduced incorporation of BrdU
- incorporation of BrdU [3]: reduced incorporation of BrdU
- increase in intracellular ADMA [4]: 68%
- TGF-β induced collagen synthesis [1]: reduced TGF-β induced collagen synthesis

Structure (SMILES): N=C1Sc2ccccc2C2=NCCCN12 [PD 404]
- inhibition of DDAH activity, orthogonal colorimetric assay [5, 8]: significantly inhibited DDAH activity
- IC50 ([5]; high throughput screen of library copies (BMF-6, BMF-7, BMF-8, MicroSource, LOPAC), dose-dependent inhibition): 8.71 µM
- inhibition of DDAH activity, CPM fluorometric assay [6, 8]: directly inhibit DDAH activity; also recorded: inhibited DDAH activity significantly
- increase in intracellular ADMA [4]: ~84%

Structure (SMILES): O=C(O)c1cc[c]([Hg][Cl])cc1 [chloromercuribenzoate, 4-chloromercuribenzoic acid, reference compound]
- inhibition of DDAH activity, CPM fluorometric validation ([6]; fresh powders from vendors, vs vehicle): confirmed known DDAH inhibitors
- mode of inhibition in time-dependence kinetics [7]: progressive inhibition

Structure (SMILES): CC(=O)[O-].[Hg+][c]1ccccc1 [phenylmercuric acetate]
- IC50 [6]: < 780 nM
- mode of inhibition in time-dependence kinetics [7]: progressive inhibition

Reference: patent US9011882B2, “Dimethylarginine dimethylaminohydrolase inhibitors and methods of use thereof” (The Board of Trustees of the Leland Stanford Junior …, priority 2012, dated 2015)
